Molecular target: T1, PI3Kδ (PI3 Kd) (Homo sapiens, UniProt O00329)
T1 construct: purchased Millipore
Test: PI3K HTRF enzymatic inhibition assay (cell-free), PI3Kd
Assay type: biochemical
Procedure: PI3K α, β, δ and γ Enzymatic Inhibition Assays
Compounds were screened for their ability to inhibit PI3Kα (PI3Kα), PI3Kβ (PI3 Kb), PI3Kδ (PI3 Kd) and PI3Kγ (PI3 Kg) using a cell-free based PI3K HTRF™ assay (Millipore, ref. #33-017) All reagents to perform the reactions were prepared according to the manufacturer protocol. All PI3K enzymes were recombinant and were purchased at Millipore.
These concentrations were final in the assay. • 3) A reservoir plate containing Adenosine TriPhosphate (ATP) diluted in the Millipore kit buffer was prepared for each isoform. […] Incubation was done for 8 minutes (for all four isoforms) then the reaction was stopped by addition of the Stop solution. The Detection solution was added. These solutions were prepared previously according to the kit specifications.

T1 sequence (O00329 whole entry): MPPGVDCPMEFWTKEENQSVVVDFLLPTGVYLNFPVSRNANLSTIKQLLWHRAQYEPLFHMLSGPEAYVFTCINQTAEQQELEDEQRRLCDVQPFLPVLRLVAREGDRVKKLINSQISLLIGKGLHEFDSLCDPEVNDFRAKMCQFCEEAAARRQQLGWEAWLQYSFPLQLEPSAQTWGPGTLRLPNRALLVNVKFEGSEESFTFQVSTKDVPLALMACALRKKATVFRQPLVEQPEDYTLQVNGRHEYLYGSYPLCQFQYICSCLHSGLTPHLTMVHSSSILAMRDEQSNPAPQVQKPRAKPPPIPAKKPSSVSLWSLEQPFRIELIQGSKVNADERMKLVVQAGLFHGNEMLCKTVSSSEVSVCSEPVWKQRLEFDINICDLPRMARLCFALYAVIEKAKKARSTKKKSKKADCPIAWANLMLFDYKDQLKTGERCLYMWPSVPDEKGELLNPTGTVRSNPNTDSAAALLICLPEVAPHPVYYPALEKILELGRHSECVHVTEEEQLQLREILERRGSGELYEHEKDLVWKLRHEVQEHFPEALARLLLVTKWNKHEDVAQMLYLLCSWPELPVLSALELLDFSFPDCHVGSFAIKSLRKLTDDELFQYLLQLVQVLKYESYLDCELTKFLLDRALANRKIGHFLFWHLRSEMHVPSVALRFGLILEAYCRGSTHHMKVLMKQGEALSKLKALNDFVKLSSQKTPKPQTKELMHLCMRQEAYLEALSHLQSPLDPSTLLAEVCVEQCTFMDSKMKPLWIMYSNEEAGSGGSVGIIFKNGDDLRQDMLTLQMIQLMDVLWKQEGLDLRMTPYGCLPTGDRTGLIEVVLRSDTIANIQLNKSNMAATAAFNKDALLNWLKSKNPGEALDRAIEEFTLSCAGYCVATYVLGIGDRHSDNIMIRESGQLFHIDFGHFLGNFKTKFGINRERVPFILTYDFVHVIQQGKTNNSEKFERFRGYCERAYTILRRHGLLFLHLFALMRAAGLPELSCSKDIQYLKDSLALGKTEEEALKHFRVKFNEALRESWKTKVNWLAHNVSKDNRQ
T1 sequence (P27986 whole entry partner): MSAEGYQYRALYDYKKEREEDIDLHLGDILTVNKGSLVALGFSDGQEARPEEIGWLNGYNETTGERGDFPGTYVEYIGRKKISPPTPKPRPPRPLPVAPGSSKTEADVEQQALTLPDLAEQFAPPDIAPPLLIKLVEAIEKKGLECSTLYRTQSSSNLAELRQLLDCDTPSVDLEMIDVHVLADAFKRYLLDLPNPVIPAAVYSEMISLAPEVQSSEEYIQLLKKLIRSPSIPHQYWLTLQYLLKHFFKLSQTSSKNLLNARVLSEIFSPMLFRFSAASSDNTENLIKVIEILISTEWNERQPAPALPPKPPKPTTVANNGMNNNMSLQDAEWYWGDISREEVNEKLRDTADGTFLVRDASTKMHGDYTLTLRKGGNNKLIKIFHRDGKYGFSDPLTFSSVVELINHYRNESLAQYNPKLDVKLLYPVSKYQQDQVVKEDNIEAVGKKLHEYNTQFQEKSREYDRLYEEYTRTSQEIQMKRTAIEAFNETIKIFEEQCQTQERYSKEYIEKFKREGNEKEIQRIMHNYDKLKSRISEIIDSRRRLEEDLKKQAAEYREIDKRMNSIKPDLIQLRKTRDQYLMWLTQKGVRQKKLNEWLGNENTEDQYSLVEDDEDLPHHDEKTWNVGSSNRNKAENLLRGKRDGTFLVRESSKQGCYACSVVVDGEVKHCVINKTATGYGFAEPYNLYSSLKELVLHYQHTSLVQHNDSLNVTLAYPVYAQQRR

Row | Compound | IC50 [µM]
1 | C[C@H](Nc1ncnc(N)c1C#N)c1nn2cccc2c(=O)n1C1CCC1 [Example 138, (S)-4-Amino-6-(1-(3-cyclobutyl-4-oxo-3,4-dihydropyrrolo[1,2-f][1,2,4]triazin-2-yl)ethylamino)pyrimidine-5-carbonitrile] | 0.008
2 | C[C@H](Nc1ncnc(N)c1C#N)c1nn2ccc(Br)c2c(=O)[nH]1 [Example 142, (S)-4-Amino-6-(1-(5-bromo-4-oxo-3,4-dihydropyrrolo[1,2-f][1,2,4]triazin-2-yl)ethylamino)pyrimidine-5-carbonitrile] | 0.005
3 | C[C@H](Nc1ncnc(N)c1C#N)c1nn2ccc(Br)c2c(=O)n1-c1ccccc1 [Example 144, (S)-4-Amino-6-(1-(5-bromo-4-oxo-3-phenyl-3,4-dihydropyrrolo[1,2-f][1,2,4]triazin-2-yl)ethylamino)pyrimidine-5-carbonitrile] | 0.001
4 | CCCNC(=O)c1ccn2nc([C@H](C)Nc3ncnc(N)c3C#N)n(-c3ccccc3)c(=O)c12 [Example 152, (S)-2-(1-(6-Amino-5-cyanopyrimidin-4-ylamino)ethyl)-4-oxo-3-phenyl-N-propyl-3,4-dihydropyrrolo[1,2-f][1,2,4]triazine-5-carboxamide] | 0.747
5 | N#Cc1c(N)ncnc1N[C@@H](CO)c1nn2cccc2c(=O)n1-c1cc(F)cc(F)c1 [Example 157, (R)-4-Amino-6-(1-(3-(3,5-difluorophenyl)-4-oxo-3,4-dihydropyrrolo[1,2-f][1,2,4]triazin-2-yl)-2-hydroxyethylamino)pyrimidine-5-carbonitrile] | 0.066
6 | Cc1ccccc1-n1c(CNc2ncnc(N)c2C#N)nn2cccc2c1=O [Example 158, 4-Amino-6-((4-oxo-3-o-tolyl-3,4-dihydropyrrolo[1,2-f][1,2,4]triazin-2-yl)methylamino)pyrimidine-5-carbonitrile] | 0.043

Results, then the compound that gave them:

Row | IC50 [µM] | Compound
7 | 0.035 | C[C@H](Nc1ncnc(N)c1C#N)c1nn2ccc(CCO)c2c(=O)n1-c1ccccc1 [Example 159, (S)-4-Amino-6-(1-(5-(2-hydroxyethyl)-4-oxo-3-phenyl-3,4-dihydropyrrolo[1,2-f][1,2,4]triazin-2-yl)ethylamino)pyrimidine-5-carbonitrile]
8 | 0.067 | CCCOC(=O)c1ccn2nc(C(C)Nc3ncnc(N)c3C#N)n(-c3ccccc3)c(=O)c12 [Example 164, (S)-Propyl 2-(1-(6-amino-5-cyanopyrimidin-4-ylamino)ethyl)-4-oxo-3-phenyl-3,4-dihydropyrrolo[1,2-f][1,2,4]triazine-5-carboxylate]
9 | 0.67 | N#Cc1c(N)ncnc1N[C@@H](CCO)c1nn2cccc2c(=O)[nH]1 [Example 165, (S)-4-Amino-6-(3-hydroxy-1-(4-oxo-3,4-dihydropyrrolo[1,2-f][1,2,4]triazin-2-yl)propylamino)pyrimidine-5-carbonitrile]
10 | 0.006 | C[C@H](Nc1ncnc(N)c1C#N)c1nn2ccc(Br)c2c(=O)n1-c1cccc(C(F)(F)F)c1 [Example 169, (S)-4-Amino-6-(1-(5-bromo-4-oxo-3-(3-(trifluoromethyl)phenyl)-3,4-dihydropyrrolo[1,2-f][1,2,4]triazin-2-yl)ethylamino)pyrimidine-5-carbonitrile]
11 | 0.032 | C[C@H](Nc1ncnc(N)c1C#N)c1nn2ccc(C#N)c2c(=O)n1-c1cccc(C(F)(F)F)c1 [Example 176, (S)-2-(1-(6-Amino-5-cyanopyrimidin-4-ylamino)ethyl)-4-oxo-3-(3-(trifluoromethyl)phenyl)-3,4-dihydropyrrolo[1,2-f][1,2,4]triazine-5-carbonitrile]
12 | 0.007 | C[C@H](Nc1ncnc(N)c1C#N)c1nn2cccc2c(=O)n1-c1cccc(O)c1 [Example 179]
